The record followed here is ChEMBL document CHEMBL1137597, “Evolution of thiazolidine-based blockers of human Kv1.5 for the treatment of atrial arrhythmias” (Bioorg Med Chem Lett, 2007).

Data set [1] has as its target T1, Potassium voltage-gated channel subfamily A member 5 (Homo sapiens, UniProt P22460). Nature of the data set: Inhibition of Kv1.5 mediated ultra-rapid delayed rectifier current Ikur in human atrial cells. It counts as functional, cell-based, Cardiac atrium.
Data set [2] deals with T1, Potassium voltage-gated channel subfamily A member 5. Nature of the data set: Inhibition of ultra-rapid delayed rectifier current Ikur in human atrial cells at 1uM. It counts as functional, cell-based. As to conditions: Cardiac atrium.
Data set [3] is described as follows: Percent oxidation in rat S9 microsomal fraction. The conditions noted are these: read-out: Oxidation. The class given is ADME.

T1 sequence (P22460 whole entry): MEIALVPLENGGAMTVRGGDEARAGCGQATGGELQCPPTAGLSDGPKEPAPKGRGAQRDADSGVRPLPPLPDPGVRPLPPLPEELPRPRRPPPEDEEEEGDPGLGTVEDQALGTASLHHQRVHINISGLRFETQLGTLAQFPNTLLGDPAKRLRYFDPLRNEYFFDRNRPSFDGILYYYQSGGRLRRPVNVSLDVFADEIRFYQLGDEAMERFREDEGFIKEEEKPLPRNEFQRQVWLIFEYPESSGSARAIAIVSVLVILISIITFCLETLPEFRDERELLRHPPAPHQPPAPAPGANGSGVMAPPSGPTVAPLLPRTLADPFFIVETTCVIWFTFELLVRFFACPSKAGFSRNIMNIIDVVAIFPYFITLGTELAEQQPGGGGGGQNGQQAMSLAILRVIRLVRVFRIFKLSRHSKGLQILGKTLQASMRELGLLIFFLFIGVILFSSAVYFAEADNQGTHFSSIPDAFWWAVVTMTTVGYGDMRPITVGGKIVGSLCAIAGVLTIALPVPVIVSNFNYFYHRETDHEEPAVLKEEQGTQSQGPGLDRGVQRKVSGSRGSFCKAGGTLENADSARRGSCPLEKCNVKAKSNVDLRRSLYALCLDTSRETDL

`COc1ccc(CCN2C(=O)CSC23CCc2c(C)cccc23)cc1` (stereo not drawn): in data set [1], the IC50 (as a rule, the concentration at which inhibition is half-maximal) was found to be 487 nM. For the same molecule, the inhibition (usually the percentage by which the read-out fell short of the control) in data set [2] is 61%.

In data set [1], `COc1ccc(CCC(=O)N2CCSC2c2ccc(C)c(C)c2)cc1` (stereo not drawn) came in with an IC50 of 150 nM. The inhibition in data set [2] came out at 89%.

`O=C1CSC(c2ccc(Cl)cc2)N1OCc1ccccc1` (stereo not drawn) yielded an IC50 in data set [1] of 997 nM. Besides, the inhibition in data set [2] worked out at 35%.

As to `COc1ccc(CCN2C(=O)CSC23CCc2cc(Cl)ccc23)cc1` (stereo not drawn), the half-maximal inhibitory concentration (IC50) in data set [1] is 812 nM. The inhibition in data set [2] came out at 66%.

For the molecule `O=C1CSC(c2ccc(Cl)c(Cl)c2)N1OCc1ccccc1` (stereo not drawn), the IC50 in data set [1] came to 463 nM. Moreover, in data set [2], the inhibition was 77%.

`COc1ccc(CON2C(=O)CSC2c2ccccc2)cc1` (stereo not drawn) had an IC50 in data set [1] of 924 nM.

Molecule `COc1ccccc1CON1C(=O)CSC1c1ccc(Cl)cc1` (stereo not drawn) showed an inhibition in data set [2] of 25%.

Take `O=C(COc1ccccc1)N1CCSC1c1ccc(C2CC2)cc1` (stereo not drawn): the inhibition in data set [2] turned out to be 64%.

`COc1cccc(CON2C(=O)CSC2c2ccc(Cl)c(Cl)c2)c1` (stereo not drawn) yielded an IC50 in data set [1] of 179 nM.

In the case of `COc1ccc(CC(=O)N2CCSC2c2ccc(Cl)c(Cl)c2)cc1` (stereo not drawn), the metabolised in data set [3] is 100%.

The molecule `Cc1ccc(C2SCCN2C(=O)OCc2ccccc2)cc1C` (stereo not drawn) displayed an inhibition in data set [2] of 18%.

In data set [2], `Cc1ccc(C2SCCN2C(=O)COc2ccccc2)cc1C` (stereo not drawn) displayed an inhibition of 95%.

Take `COc1ccc(CON2C(=O)CSC2c2ccc(Cl)cc2)cc1` (stereo not drawn): the IC50 in data set [1] was determined as 187 nM.

`COc1ccc(C2SCCN2C(=O)COc2ccccc2)cc1Cl` (stereo not drawn) gave an inhibition in data set [2] of 35%.

On to `COc1ccc(CON2C(=O)CSC2c2ccc(C)c(C)c2)cc1` (stereo not drawn), for which 95 nM corresponded to half-maximal inhibition in data set [1] (IC50).

Consider `COc1ccccc1CON1C(=O)CSC1c1ccc(Cl)c(Cl)c1` (stereo not drawn), for which 204 nM corresponded to half-maximal inhibition in data set [1] (IC50).

`COc1cccc(CON2C(=O)CSC2c2ccc(C)c(C)c2)c1` (stereo not drawn) registered an IC50 in data set [1] of 269 nM. In data set [2], the inhibition was determined as 75%.

With `COc1ccc(C2SCCN2C(=O)COc2ccccc2)cc1` (stereo not drawn), in data set [2], the inhibition is 72%.

Regarding `COc1ccc(CC(=O)N2CCSC2c2ccc(C)c(C)c2)cc1` (stereo not drawn), the IC50 in data set [1] was 537 nM. In data set [2], this molecule registered an inhibition of 77%.

In data set [1], `COc1ccc(CON2C(=O)CSC2c2ccc(Cl)c(Cl)c2)cc1` (stereo not drawn) displayed an IC50 of 113 nM. Also, in data set [2], the inhibition turned out to be 92%.

In data set [2], `Cc1ccc(C2SCCN2C(=O)COc2ccccc2)cc1` (stereo not drawn) registered an inhibition of 80%.

Turning to `CN(C)c1ccc(C2SCCN2C(=O)COc2ccccc2)cc1` (stereo not drawn), the inhibition in data set [2] worked out at 55%.

`COc1ccc(CCN2C(=O)CSC2(C)c2ccc(C)cc2)cc1` (stereo not drawn) returned an IC50 in data set [1] of 390 nM. Moreover, in data set [2], the inhibition was 88%.

The molecule `O=C(COc1ccccc1)N1CCSC1c1ccc(Cl)c(Cl)c1` (stereo not drawn) showed an inhibition in data set [2] of 93%.

Consider `Cc1ccc(C2SCC(=O)N2OCc2ccccc2)cc1C` (stereo not drawn), for which it took 207 nM to reach half-maximal inhibition in data set [1] (IC50). In data set [2], this molecule yielded an inhibition of 92%.

`COc1ccc(CCN2C(=O)CSC2(C)c2ccc(C)c(C)c2)cc1` (stereo not drawn) showed an IC50 in data set [1] of 69 nM. Moreover, the inhibition in data set [2] stood at 96%.

Molecule `COc1ccccc1CON1C(=O)CSC1c1ccc(C)c(C)c1` (stereo not drawn) had an IC50 in data set [1] of 177 nM. In addition, the inhibition in data set [2] is 92%.

In data set [2], `COc1ccc(CCCC(=O)N2CCSC2c2ccc(C)c(C)c2)cc1` (stereo not drawn) came in with an inhibition of 68%.

Molecule `COc1cccc(CON2C(=O)CSC2c2ccc(Cl)cc2)c1` (stereo not drawn) had an IC50 in data set [1] of 380 nM.

Molecule `COc1ccc(/C=C/C(=O)N2CCSC2c2ccc(C)c(C)c2)cc1` (stereo not drawn) returned an inhibition in data set [2] of 92%.

`Cc1ccc(C2SCCN2C(=O)CCc2ccccc2)cc1C` (stereo not drawn) showed an inhibition in data set [2] of 87%.
